What all share (assay type): functional
The target of assay [1] is Serine/threonine-protein kinase pim-3 (Homo sapiens, UniProt Q86V86).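 Further: value obtained as one member of a broad kinase panel profiling effort.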
Assay [2] concerns the target Casein kinase II subunit alpha (Homo sapiens, UniProt P68400).
The target of assay [3] is Receptor tyrosine-protein kinase erbB-4 (Homo sapiens, UniProt Q15303).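 Further: ERBB4 member of a kinome-wide kinase profiling panel.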
The target of assay [4] is Protein kinase C gamma type (Homo sapiens, UniProt P05129).
The target of assay [5] is Megakaryocyte-associated tyrosine-protein kinase (Homo sapiens, UniProt P42679).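 Further: affinity measured as one member of a kinase panel (Navigating the Kinome) against MATK.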
Assay [6] has as its target Calcium/calmodulin-dependent protein kinase type 1 (Homo sapiens, UniProt Q14012).
The target in assay [7] is Receptor tyrosine-protein kinase erbB-2 (Homo sapiens, UniProt P04626). Kind of assay: Navigating the Kinome. Panel member name: ERBB2.
The target of assay [8] is Proto-oncogene tyrosine-protein kinase ROS (Homo sapiens, UniProt P08922).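 Further: ROS1 tested as one member of a kinome-wide kinase panel.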
Assay [9] addresses Tyrosine-protein kinase Blk (Homo sapiens, UniProt P51451).
For assay [10], the target named is Dual specificity tyrosine-phosphorylation-regulated kinase 3 (Homo sapiens, UniProt O43781).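 Further: measured as one member of a broad kinase panel.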
The target of assay [11] is Tyrosine-protein kinase Srms (Homo sapiens, UniProt Q9H3Y6).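 Further: SRMS measured as one member of a kinome-wide kinase profiling panel.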
Assay [12] concerns the target Homeodomain-interacting protein kinase 4 (Homo sapiens, UniProt Q8NE63).
Assay [13] addresses Serine/threonine-protein kinase PAK 1 (Homo sapiens, UniProt Q13153).
Assay [14] deals with 3-phosphoinositide-dependent protein kinase 1 (Homo sapiens, UniProt O15530).
For assay [15], the target named is T1, Testis-specific serine/threonine-protein kinase 2 (Homo sapiens, UniProt Q96PF2).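 Further: part of the Navigating the Kinome panel, target entry STK22B.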
T1 sequence (Q96PF2 whole entry): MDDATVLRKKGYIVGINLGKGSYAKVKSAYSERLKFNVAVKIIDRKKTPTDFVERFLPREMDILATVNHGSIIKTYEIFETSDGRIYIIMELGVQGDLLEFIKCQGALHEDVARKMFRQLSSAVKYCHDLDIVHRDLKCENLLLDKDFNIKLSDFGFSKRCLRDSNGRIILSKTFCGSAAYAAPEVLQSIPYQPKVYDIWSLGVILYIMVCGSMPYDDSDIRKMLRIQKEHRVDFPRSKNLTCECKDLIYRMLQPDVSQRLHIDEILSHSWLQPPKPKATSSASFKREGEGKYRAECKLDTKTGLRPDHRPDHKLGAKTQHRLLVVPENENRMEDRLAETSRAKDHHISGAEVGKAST

Assay [16] concerns the target Lymphokine-activated killer T-cell-originated protein kinase (Homo sapiens, UniProt Q96KB5).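 Further: value comes from a kinase panel screen in which TOPK was one of the panel members.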
For the next assay, the target named is Activin receptor type-1 (Homo sapiens, UniProt Q04771). Nature of the assay: Navigating the Kinome. Panel member name: ACVR1.
Assay [17] concerns the target Serine/threonine-protein kinase TBK1 (Homo sapiens, UniProt Q9UHD2). Kind of assay: Navigating the Kinome. Panel member name: TBK1.
Assay [18] deals with Serine/threonine-protein kinase PAK 4 (Homo sapiens, UniProt O96013).
For assay [19], the target named is Inhibitor of nuclear factor kappa-B kinase subunit epsilon (Homo sapiens, UniProt Q14164). Kind of assay: Navigating the Kinome. Panel member name: IKBKE.
For assay [20], the target named is Dual specificity protein kinase CLK4 (Homo sapiens, UniProt Q9HAZ1).
For assay [21], the target named is Protein kinase C theta type (Homo sapiens, UniProt Q04759). Kind of assay: Navigating the Kinome. Panel member name: PRKCQ.
The target of assay [22] is Tyrosine-protein kinase Fyn (Homo sapiens, UniProt P06241).
For the next assay, the target named is Focal adhesion kinase 1 (Homo sapiens, UniProt Q05397).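 Further: measured as one member of a kinome panel.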
Assay [23] deals with Leucine-rich repeat serine/threonine-protein kinase 2 (Homo sapiens, UniProt Q5S007).
In assay [24] the target is Cyclin-dependent kinase 9 (Homo sapiens, UniProt P50750).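 Further: value from the CDK9 entry of a kinome-spanning kinase panel.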
In assay [25] the target is Macrophage-stimulating protein receptor (Homo sapiens, UniProt Q04912). Kind of assay: Navigating the Kinome. Panel member name: MST1R.
Assay [26] deals with Receptor-type tyrosine-protein kinase FLT3 (Homo sapiens, UniProt P36888).
A further assay deals with Aurora kinase A (Homo sapiens, UniProt O14965).
Assay [27] addresses Proto-oncogene tyrosine-protein kinase receptor Ret (Homo sapiens, UniProt P07949).
Assay [28] deals with Ribosomal protein S6 kinase alpha-3 (Homo sapiens, UniProt P51812).
Assay [29] has as its target Casein kinase I isoform alpha (Homo sapiens, UniProt P48729).
Assay [30] deals with Hepatocyte growth factor receptor (Homo sapiens, UniProt P08581).
Assay [31] concerns the target Serine/threonine-protein kinase Nek2 (Homo sapiens, UniProt P51955).
In assay [32] the target is Mitogen-activated protein kinase 9 (Homo sapiens, UniProt P45984).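 Further: value from a kinome panel profiling assay, MAPK9 panel entry.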

Structures are written as SMILES. Calls of active or inactive are those of the source. Bounds are passed on as bounds.

Chain of Casein kinase I isoform alpha (P48729 whole entry, canonical isoform): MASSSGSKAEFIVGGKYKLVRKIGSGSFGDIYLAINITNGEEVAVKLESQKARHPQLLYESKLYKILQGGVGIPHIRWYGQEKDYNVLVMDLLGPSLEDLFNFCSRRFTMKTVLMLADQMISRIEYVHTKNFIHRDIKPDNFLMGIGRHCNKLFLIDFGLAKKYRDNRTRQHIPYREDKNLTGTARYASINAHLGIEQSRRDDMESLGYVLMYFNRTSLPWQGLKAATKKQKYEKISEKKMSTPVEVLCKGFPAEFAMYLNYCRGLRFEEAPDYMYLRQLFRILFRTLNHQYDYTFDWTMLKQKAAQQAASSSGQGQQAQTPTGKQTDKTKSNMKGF
Chain of Serine/threonine-protein kinase PAK 1 (Q13153 whole entry): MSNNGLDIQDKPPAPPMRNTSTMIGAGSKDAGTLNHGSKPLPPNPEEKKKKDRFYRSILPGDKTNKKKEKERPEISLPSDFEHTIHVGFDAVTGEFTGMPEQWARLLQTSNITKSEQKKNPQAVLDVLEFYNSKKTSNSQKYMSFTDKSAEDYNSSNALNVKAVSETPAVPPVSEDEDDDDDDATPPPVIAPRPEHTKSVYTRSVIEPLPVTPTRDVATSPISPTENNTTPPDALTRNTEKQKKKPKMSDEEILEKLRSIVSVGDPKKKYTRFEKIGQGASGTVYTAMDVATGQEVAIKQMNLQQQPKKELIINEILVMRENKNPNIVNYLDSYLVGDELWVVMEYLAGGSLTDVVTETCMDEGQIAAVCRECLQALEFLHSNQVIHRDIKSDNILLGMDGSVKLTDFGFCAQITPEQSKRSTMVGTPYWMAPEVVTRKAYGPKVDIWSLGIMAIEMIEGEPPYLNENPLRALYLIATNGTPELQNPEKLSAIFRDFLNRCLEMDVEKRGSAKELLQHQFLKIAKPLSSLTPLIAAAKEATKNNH
Chain of Dual specificity tyrosine-phosphorylation-regulated kinase 3 (O43781 whole entry): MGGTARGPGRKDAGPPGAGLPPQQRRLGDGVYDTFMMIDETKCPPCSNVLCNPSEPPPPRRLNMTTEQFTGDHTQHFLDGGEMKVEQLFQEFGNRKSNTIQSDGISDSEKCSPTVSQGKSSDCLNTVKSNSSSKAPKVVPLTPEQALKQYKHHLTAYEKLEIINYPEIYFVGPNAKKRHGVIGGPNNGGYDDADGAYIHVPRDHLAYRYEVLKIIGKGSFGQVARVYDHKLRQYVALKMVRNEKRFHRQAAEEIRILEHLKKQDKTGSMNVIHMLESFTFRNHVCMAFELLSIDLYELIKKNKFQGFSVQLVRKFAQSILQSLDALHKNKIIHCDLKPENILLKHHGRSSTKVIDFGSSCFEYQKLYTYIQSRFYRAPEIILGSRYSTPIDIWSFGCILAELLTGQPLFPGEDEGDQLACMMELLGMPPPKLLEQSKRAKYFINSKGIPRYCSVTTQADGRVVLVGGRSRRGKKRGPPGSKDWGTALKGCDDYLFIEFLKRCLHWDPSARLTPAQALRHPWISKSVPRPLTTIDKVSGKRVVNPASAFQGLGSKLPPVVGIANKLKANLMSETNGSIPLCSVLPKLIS
Chain of Leucine-rich repeat serine/threonine-protein kinase 2 (Q5S007 whole entry): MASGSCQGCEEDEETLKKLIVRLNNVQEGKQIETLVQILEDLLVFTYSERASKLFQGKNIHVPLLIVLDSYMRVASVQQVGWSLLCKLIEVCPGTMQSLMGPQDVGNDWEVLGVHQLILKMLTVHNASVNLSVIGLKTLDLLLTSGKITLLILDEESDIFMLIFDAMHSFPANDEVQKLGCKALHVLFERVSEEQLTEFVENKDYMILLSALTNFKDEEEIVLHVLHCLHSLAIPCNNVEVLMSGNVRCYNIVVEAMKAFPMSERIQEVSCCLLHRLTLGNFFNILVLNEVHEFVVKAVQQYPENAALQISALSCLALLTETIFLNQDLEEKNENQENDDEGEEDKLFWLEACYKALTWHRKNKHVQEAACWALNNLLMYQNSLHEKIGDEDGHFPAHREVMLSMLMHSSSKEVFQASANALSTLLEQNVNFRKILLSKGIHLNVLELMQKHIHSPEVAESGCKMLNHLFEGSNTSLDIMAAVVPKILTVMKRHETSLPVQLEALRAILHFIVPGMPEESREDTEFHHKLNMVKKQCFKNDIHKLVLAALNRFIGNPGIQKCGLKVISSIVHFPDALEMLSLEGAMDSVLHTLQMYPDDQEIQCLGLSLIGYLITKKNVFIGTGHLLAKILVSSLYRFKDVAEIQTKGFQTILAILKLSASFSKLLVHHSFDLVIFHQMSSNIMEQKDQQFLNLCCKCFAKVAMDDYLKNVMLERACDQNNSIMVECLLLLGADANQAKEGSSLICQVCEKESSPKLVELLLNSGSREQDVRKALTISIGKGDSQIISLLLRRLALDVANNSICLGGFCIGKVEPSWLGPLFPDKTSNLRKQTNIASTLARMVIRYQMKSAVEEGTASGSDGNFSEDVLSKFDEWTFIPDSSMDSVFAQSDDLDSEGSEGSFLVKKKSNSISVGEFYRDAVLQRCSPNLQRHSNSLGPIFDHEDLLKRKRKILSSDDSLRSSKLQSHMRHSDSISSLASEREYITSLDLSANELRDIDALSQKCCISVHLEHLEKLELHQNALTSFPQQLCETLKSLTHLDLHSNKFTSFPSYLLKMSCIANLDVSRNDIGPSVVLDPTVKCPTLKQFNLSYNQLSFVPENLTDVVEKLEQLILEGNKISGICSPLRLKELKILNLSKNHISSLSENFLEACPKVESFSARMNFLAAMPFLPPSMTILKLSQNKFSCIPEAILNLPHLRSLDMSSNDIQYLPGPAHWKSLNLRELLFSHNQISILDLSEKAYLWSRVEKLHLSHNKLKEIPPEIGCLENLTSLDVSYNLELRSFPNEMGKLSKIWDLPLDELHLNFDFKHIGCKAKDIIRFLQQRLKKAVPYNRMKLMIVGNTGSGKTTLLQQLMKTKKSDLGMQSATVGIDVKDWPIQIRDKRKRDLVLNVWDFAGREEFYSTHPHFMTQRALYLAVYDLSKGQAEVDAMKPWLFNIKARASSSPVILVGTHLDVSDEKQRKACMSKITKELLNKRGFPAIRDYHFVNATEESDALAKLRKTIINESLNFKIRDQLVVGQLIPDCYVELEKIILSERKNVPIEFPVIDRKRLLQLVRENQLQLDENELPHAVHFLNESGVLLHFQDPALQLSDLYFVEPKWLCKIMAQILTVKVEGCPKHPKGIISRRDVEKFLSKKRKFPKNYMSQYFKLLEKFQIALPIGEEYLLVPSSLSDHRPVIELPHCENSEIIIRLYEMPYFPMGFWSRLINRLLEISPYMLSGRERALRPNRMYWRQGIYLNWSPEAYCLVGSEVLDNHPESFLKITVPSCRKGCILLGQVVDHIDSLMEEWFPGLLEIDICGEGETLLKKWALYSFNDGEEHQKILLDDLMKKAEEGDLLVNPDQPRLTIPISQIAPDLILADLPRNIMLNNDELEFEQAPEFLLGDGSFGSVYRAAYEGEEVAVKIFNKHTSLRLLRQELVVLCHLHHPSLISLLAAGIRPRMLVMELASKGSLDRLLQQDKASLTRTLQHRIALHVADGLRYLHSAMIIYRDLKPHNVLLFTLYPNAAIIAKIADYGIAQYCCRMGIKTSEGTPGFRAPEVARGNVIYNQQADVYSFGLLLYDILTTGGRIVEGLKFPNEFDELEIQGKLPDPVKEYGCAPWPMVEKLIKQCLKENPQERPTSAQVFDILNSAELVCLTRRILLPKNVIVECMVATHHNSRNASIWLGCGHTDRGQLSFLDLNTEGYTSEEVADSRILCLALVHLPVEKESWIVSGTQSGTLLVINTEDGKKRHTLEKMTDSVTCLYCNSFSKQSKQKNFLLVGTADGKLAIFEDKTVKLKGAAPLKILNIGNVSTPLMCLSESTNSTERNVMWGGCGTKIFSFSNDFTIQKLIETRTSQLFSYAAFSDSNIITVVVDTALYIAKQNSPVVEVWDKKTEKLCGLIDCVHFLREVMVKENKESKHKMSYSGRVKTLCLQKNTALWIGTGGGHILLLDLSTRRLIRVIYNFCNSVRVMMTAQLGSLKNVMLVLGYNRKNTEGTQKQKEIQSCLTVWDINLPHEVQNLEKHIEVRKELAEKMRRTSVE
Chain of Tyrosine-protein kinase Fyn (P06241 whole entry): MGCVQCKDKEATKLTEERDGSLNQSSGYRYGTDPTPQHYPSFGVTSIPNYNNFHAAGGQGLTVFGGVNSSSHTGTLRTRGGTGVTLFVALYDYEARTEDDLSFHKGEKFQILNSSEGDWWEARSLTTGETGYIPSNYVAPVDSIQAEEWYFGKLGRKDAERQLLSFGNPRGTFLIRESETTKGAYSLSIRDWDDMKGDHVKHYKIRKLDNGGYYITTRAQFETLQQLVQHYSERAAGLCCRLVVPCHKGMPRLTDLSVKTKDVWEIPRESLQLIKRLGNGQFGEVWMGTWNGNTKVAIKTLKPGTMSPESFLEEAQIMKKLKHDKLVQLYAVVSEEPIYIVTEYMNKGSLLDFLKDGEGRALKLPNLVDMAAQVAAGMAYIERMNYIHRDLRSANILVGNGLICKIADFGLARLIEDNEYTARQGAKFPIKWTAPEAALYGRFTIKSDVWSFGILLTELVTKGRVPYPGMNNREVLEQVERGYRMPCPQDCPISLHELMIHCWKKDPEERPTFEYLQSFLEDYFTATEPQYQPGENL

Consider `COC(C(=O)N1Cc2[nH]nc(NC(=O)c3ccc(N4CCN(C)CC4)cc3)c2C1)c1ccccc1` (stereo not given), for which the Ki in [1] was > 7.94 µM (inactive); in assay [2], > 6.31 µM (inactive); in assay [3] it was > 3.98 µM (inactive); in assay [4], > 7.94 µM (inactive); in assay [5] it was > 2 µM (inactive); in assay [6], > 2.51 µM (inactive). In addition, the Ki in assay [7] is > 1.58 µM (inactive); in assay [8], 0.00794 µM (active); in [9] it was 0.0398 µM (active); in assay [10], > 6.31 µM (inactive); in [11] it was 0.0501 µM (active); in [12], > 7.94 µM (inactive). In addition, the Ki is > 10 µM (inactive) in assay [13], > 3.98 µM (inactive) in [14], > 1.58 µM (inactive) in assay [15] and > 10 µM (inactive) in [16].

For the compound `CC(C)(O)c1cn(-c2ccc3[nH]ncc3c2)nn1`, the Ki is 79.4 µM (active) on Activin receptor type-1; 79.4 µM (active) in [17]; 100 µM (active) in [18]; 31.6 µM (active) in [19]; 0.0794 µM (active) in assay [20]; 39.8 µM (active) in [21]. Further, the inhibition constant Ki in assay [22] was 100 µM (active); at Focal adhesion kinase 1, 50.1 µM (active); in assay [23] it was 12.6 µM (active); in assay [24], 10 µM (active); in assay [25] it was 39.8 µM (active); in assay [26], 50.1 µM (active). For the same compound, the Ki on Aurora kinase A is 25.1 µM (active); in assay [27] it was 25.1 µM (active); in [28], 39.8 µM (active); in assay [29], 10 µM (active).

For the compound `NC1CCC(Nc2nccc(-c3c[nH]c4ncccc34)n2)CC1` (stereo not given), the Ki in assay [1] is 0.2 µM (active); in assay [18], 0.316 µM (active); in [2], 2.51 µM (active); in [3], > 3.98 µM (inactive); in [4] it was 0.158 µM (active); in [30], > 3.16 µM (inactive). Further, the Ki in assay [5] was > 2 µM (inactive); in assay [22], > 0.794 µM (inactive); in assay [6] it was > 1.26 µM (inactive); in assay [7], > 1.58 µM (inactive); in assay [8], > 2 µM (inactive); in [9], > 1.58 µM (inactive). Moreover, the Ki in assay [10] is 0.0631 µM (active); in [26], 0.0631 µM (active); in [11], > 1.58 µM (inactive); in assay [12], 2.51 µM (active); in assay [13], 7.94 µM (active); in [28], 0.00501 µM (active). Also, the Ki in assay [14] is 1.26 µM (active); in assay [29] it was 0.0501 µM (active); in assay [31] it was > 10 µM (inactive); in assay [15], 0.794 µM (active); in assay [16], 0.631 µM (active); in assay [32] it was 0.126 µM (active).

Turning to `OCc1cc(-c2ccc3[nH]ncc3c2)on1`, the inhibitory constant (Ki) at Activin receptor type-1 was 20 µM (active); in [17], 50.1 µM (active); in [19], 20 µM (active); in assay [20], 0.0316 µM (active); in assay [30] it was 31.6 µM (active); in assay [21] it was 12.6 µM (active). Moreover, the inhibition constant (Ki) at Focal adhesion kinase 1 was 63.1 µM (active); in assay [23], 3.98 µM (active); in [24], 5.01 µM (active); in assay [25] it was 39.8 µM (active); at Aurora kinase A, 15.8 µM (active); in [27], 50.1 µM (active). In addition, the Ki is 39.8 µM (active) in assay [31] and 79.4 µM (active) in [32].

What is called Ki is the dissociation constant of the complex between target and ligand, obtained from inhibition or displacement.

Source of the values: ChEMBL document CHEMBL1201862, “PubChem BioAssay data set” (2004).
